These results are taken from US20240166658A1, “PORPHYRIN DERIVATIVES AND USES THEREOF” (University of Tasmania, priority 2021, published 2024).

Data set [1] is described as follows: Preliminary binding study of urea linked host, UV-Vis. Particulars: dichloromethane. The text has this: However, these colorimetric changes were weaker than that observed with the amide equivalent, likely due to the formation of an insoluble precipitate upon binding. Binding of the urea linked porphyrin host with PFOA and PFOS was also confirmed by ^19F NMR spectra (FIG. 7).

A short description of data set [2]: Aqueous extraction tests. The conditions noted are these: PFOA 5.5 × 10^−4 M in water (~228 ppm), volume 1:1. The procedure: Aqueous solutions of PFOA were prepared and combined with an organic phase of sensor molecule (9) in dichloromethane. Colour change observations at various sensor concentrations are described in Table 12.
A short description of data set [3]: 1H NMR titration with GenX in CDCl3. The conditions noted are these: host 6.85×10^−4 M in CDCl3, 20 μL aliquots of guest. It counts as binding.
Data set [4] is described as follows: Colorimetric calibration chart, RGB response to known PFOA concentrations. Particulars: PFOA 0.7 ppm, dichloromethane. On the procedure: The host molecules were combined with known concentrations of PFOA to provide RGB colour responses, which were used to create a colorimetric calibration chart that could be trialled as an indicator for estimating the total concentration of a range of any PFCAs. Solutions of each host molecule (1.00×10^−5 M) were prepared in dichloromethane. Solutions of PFOA in dichloromethane were prepared across a range of concentrations (0→16 ppm, 4.00×10^−5 M). Each host (2 mL) was combined with each PFOA concentration (1 mL, final concentration 0→1.33×10^−5 M) and photographed under equivalent lighting conditions. The average colour of each solution was then found using ImageJ RGB analysis, and a colour chart was produced.
For this reason, parametrization of the RGB values can be useful for interpreting results. The RGB response parameter can be calculated using the RGB values of the “blank” host solution (Šafranko et al., 2019) and the effective intensities of the individual RGB values of a sample (Tahir et al., 2016):
Here, H, indicates the values for the host solution, and S, indicates the response for a sample containing a PFCA, so that ΔR, ΔG, and ΔB give the colour differences. The RGB parameter is the response due to the relative difference in the RGB intensities:
The RGB values collected for each host with a range of known concentrations of PFOA in dichloromethane were parameterized and used to determine a relationship between concentration of analyte and RGB response values. […] The relationship between RGB response values and concentrations of PFOA could now be tested for accuracy in determining the concentration of any PFCA.

Data set [5] is described as follows: PFCA guest response screening (RGB analysis, UV-Vis). The procedure: A Puluz® 20 cm portable light tent with moderate and dispersed white LED lighting was used to photograph samples using an iPhone 6S plus camera on a fixed tripod. The automatic flash settings were disabled so there was no reflective interference on the sample vials. Samples that were being directly compared were photographed together to ensure lighting conditions and settings were consistent. The photographs were analysed using ImageJ software according to the procedure of Gallagher, 2014b. Multiple RGB values were chosen from areas of each sample at random to provide an “average” RGB value (Menesatti et al., 2012; Gallagher, 2014a; Phuangsaijai et al., 2021). Those RGB values were used to produce an artificial colour tile for visual comparison, or parameterized for modelling.
To quantify a colour difference, RGB values were transformed within the CIELab colour space. The difference, expressed as ΔE, was determined by measuring the relative distance between two colours. The numeric ΔE value can be used to predict how the two colours are perceived by a standard observer; a ΔE>2 is considered the minimum value to achieve a “just noticeable difference” (JND) (Table 1), which is the smallest difference required for an untrained observer to be able to determine two colours as being different (Castillo et al., 2021).
(§1) Experiments were performed at concentrations that could be monitored by the naked eye for practical sensing of PFAS in the field. Complexes of hosts (9), (11) and (12) were formed with the nine different perfluorocarboxylic acids (PFCAs) shown in Table 2 above and the colours of each host−PFCA complex were photographed in a lightbox and analysed using ImageJ software RGB analysis. Pixels of the solution were chosen at random to provide an RGB value. Multiple RGB values were recorded for each host−PFCA solution, and an average colour can be produced. From those values an RGB parameter was used to give a response value for modelling (Tahir et al., 2016).
(§2) After preliminary screenings, UV-Vis spectra were collected before and after the addition of 1 molar equivalent of each PFCA for each host, and the degree of complexation was noted by shifts in the Soret bands and formation of a peak at ca. 650 nm. To eliminate dilution effects, PFCA guest solutions were prepared in the equivalent concentration of host. If there was a notable host−guest interaction for a particular PFCA, the host−guest binding was investigated with more rigorous UV-Vis experiments, binding studies, and further colour analyses. Throughout these investigations, PFOA was considered the “average” PFCA both because of its position in the range of PFCA sizes and because its prevalence is often an indication of broader PFAS contamination. In any experiment where binding was further investigated for a particular PFCA, it was typically replicated with PFOA for comparison.

Data set [6] can be described thus: PFCA guest response across the nine PFCAs (UV-Vis, RGB, one-way ANOVA variance). The conditions noted are these: dichloromethane. On the procedure: as §1, §2
One-way factorial ANOVA was used to examine the dependence (or independence) of two or more factors affecting the dependent variable concurrently, in the present case the change in absorption, or the change in RGB response across the tested PFCAs, or across the different hosts. This analysis was used to determine the variance in the responses of each host across the different PFCAs. […]

Data set [7] in a line: UV-Vis host-guest titration, association constant. The class given is binding. The conditions noted are these: short, medium and long chain sensor molecules with PFOA. The procedure: Path length of the quartz cell was 1 cm. For UV-vis titrations, a stock solution of host was prepared (2.2×10^−3 M) in dichloromethane (DCM) and serially diluted to the required concentrations. Working solutions of tetrabutylammonium (TBA) anion salts or guest molecules were prepared in the same manner Host−guest titrations used solutions of guest prepared in the working concentration of host solution, according to the procedure of Thordarson, 2011.
UV-vis spectroscopic host−guest titrations were performed in accordance with the methodologies of Thordarson, 2011. Solutions of host in dichloromethane were prepared. Solutions of guest were then prepared in the host solution. Aliquots of guest in host solution were added to host solution and sequentially analysed until a known molar equivalent of guest was added. The amount of guest added per aliquot was ascertained by a preliminary screening experiment; strong association constants required smaller molar equivalents so more information could be collected. […] The inverse is true for weaker binding interactions. Molar equivalents between 0.1-5 typically provided adequate information for modelling. The data was then used to simulate binding isotherms using www.supramolecular.org (Hibbert and Thordarson, 2016). The data was fitted to 1:1, 1:2 and 2:1 equilibria making no assumptions about the cooperativity of the binding interactions and modelled using different algorithms. These experiments mainly used the Nelder-Mead (Simplex) method.
UV-Vis spectroscopy binding studies were used to determine the association constant for the host (9)−PFOA complex.
A host solution of host (9) in dichloromethane was monitored using UV-Vis analysis as 0.5-10 equivalents of each PFAS was added. […] The data was processed using Bindfit isotherm simulators using both Nelder-Mead and L-BFGS-B methods (Thordarson, 2011).
To highlight any potential binding preferences across the PFCAs from the host molecules, triplicates of host−guest addition titrations were performed using host (9) and the TBA salts of the nine different deprotonated PFCAs.

For data set [8] the following is noted: Rodea-Palomares et al., 2012; cited from earlier work.

Regarding `O=C(NC(=O)C(F)(F)C(F)(F)C(F)(F)C(F)(F)C(F)(F)C(F)(F)C(F)(F)F)Nc1ccccc1-c1c2nc(c(-c3ccccc3NC(=O)NC(=O)C(F)(F)C(F)(F)C(F)(F)C(F)(F)C(F)(F)C(F)(F)C(F)(F)F)c3ccc([nH]3)c(-c3ccccc3NC(=O)NC(=O)C(F)(F)C(F)(F)C(F)(F)C(F)(F)C(F)(F)C(F)(F)C(F)(F)F)c3nc(c(-c4ccccc4NC(=O)NC(=O)C(F)(F)C(F)(F)C(F)(F)C(F)(F)C(F)(F)C(F)(F)C(F)(F)F)c4ccc1[nH]4)C=C3)C=C2` [host (10), 5,10,15,20-tetra-(2-ureaphenyl-pentadecafluoro-octanoyl) porphyrin], the “colour change by UV-Vis spectrophotometric analysis” value in data set [1] (addition of PFOA) and in data set [1] (addition of PFOS) was “discernible colour change” each time. Moreover, the Observations entry in data set [2] (sensor 1.1 × 10^−6 M in DCM, H:G 1:500) is reported as “Some colour change,”; in data set [2] (sensor 2.2 × 10^−3 M in DCM, H:G 4:1), “Strong colour change”; in data set [2] (sensor 2.2 × 10^−4 M in DCM, H:G 2:5), “Strong colour change”; in data set [2] (sensor 2.2 × 10^−5 M in DCM, H:G 1:25) it was “Strong colour change”.

`O=C(Nc1ccccc1-c1c2nc(c(-c3ccccc3NC(=O)C(F)(F)C(F)(F)C(F)(F)F)c3ccc([nH]3)c(-c3ccccc3NC(=O)C(F)(F)C(F)(F)C(F)(F)F)c3nc(c(-c4ccccc4NC(=O)C(F)(F)C(F)(F)C(F)(F)F)c4ccc1[nH]4)C=C3)C=C2)C(F)(F)C(F)(F)C(F)(F)F` [host (11), α,α,α,α-5,10,15,20-tetra(2-(heptafluorobutanoylamino)phenyl) porphyrin]: the “1H NMR response to addition of GenX” value in data set [3] is “showed shifts”. The “ΔE between host and lowest PFOA concentration” value in data set [4] was 4. Moreover, the “Absorbance @ 650 nm” value in data set [5] (host + one equivalent PFBA in dichloromethane) worked out at 0.113; in data set [5] (host + one equivalent PFDA in dichloromethane), 0.0469; in data set [5] (host + one equivalent PFDoDA in dichloromethane) it was 0.0519; in data set [5] (host + one equivalent PFHpA in dichloromethane) it was 0.1009; in data set [5] (host + one equivalent PFHxA in dichloromethane), 0.0967; in data set [5] (host + one equivalent PFNA in dichloromethane) it was 0.0473. Besides, the entries for the “Absorbance @ 650 nm” value in data set [5] (host + one equivalent PFOA in dichloromethane), in data set [5] (host + one equivalent PFPeA in dichloromethane) and in data set [5] (host + one equivalent PFUnDA in dichloromethane) were 0.0977, 0.1125 and 0.0475, respectively. The ΔEHost-PFCA in data set [5] (host vs host + PFBA) is listed as 45.9; in data set [5] (host vs host + PFDA), 27.0; in data set [5] (host vs host + PFDoDA), 27.2; in data set [5] (host vs host + PFHpA) it was 43.2; in data set [5] (host vs host + PFHxA) it was 44.4; in data set [5] (host vs host + PFNA) it was 26.8. In addition, the figures for the ΔEHost-PFCA in data set [5] (host vs host + PFOA), in data set [5] (host vs host + PFPeA) and in data set [5] (host vs host + PFUnDA) were 40.6, 45.8 and 30.5, respectively. Besides, the “colorimetric response to all nine PFCAs” value in data set [6] is recorded as “strong colorimetric response”. This molecule gave a K in data set [7] of 1.19e+06 M⁻¹.

With `O=C(O)C(F)(F)C(F)(F)C(F)(F)C(F)(F)C(F)(F)C(F)(F)C(F)(F)F` [PFOA, Perfluorooctanoic acid], the logKo/w entry in data set [8] is given as “ca. 6.44”.
